# According to patent US20250073226A1, “USE OF OPIOID FOR TREATMENT OF AUTISM SPECTRUM DISORDERS” (priority 2021, published 2025):
# Values joined by “and” are separate entries in the source; they are usually repeats but may differ in a detail not shown here. Equal values may be shown once.
# Assays:
# [1] = Pharmacokinetic: drug concentrations in plasma by LC-MS after subcutaneous administration; conditions: ICR mice
# mice = conditions: Non-patent Document 28; cited from earlier work
# [2] = tested on: model similar to this experiment; conditions: 3 hours after administration; Horm Behav. 2017 November; 96:130-136; cited from earlier work
# [3] = morphine hydrochloride 0.03 mg/kg s.c., Average value
# [4] = morphine hydrochloride 0.03 mg/kg s.c., individual animals
# [5] = morphine hydrochloride 0.1 mg/kg s.c., Average value
# [6] = morphine hydrochloride 0.1 mg/kg s.c., individual animals
# [7] = morphine hydrochloride 3 mg/kg s.c., Average value
# [8] = morphine hydrochloride 3 mg/kg s.c., individual animals
smiles,measurement,setting,value
CN1CC[C@]23c4c5ccc(O)c4O[C@H]2[C@@H](O[C@@H]2O[C@H](C(=O)O)[C@@H](O)[C@H](O)[C@H]2O)C=C[C@H]3[C@H]1C5 [M6G],Plasma concentration M6G After 15 minutes,[1]; [3],13.2 ng/mL
same,Plasma concentration M6G After 60 minutes,[1]; [3],5.09 ng/mL
same,Plasma concentration M6G After 90 minutes,[1]; [3],0.488 ng/mL
same,Plasma concentration M6G After 15 minutes,[1]; [4],10.4 ng/mL and 15.7 ng/mL and 13.6 ng/mL
same,Plasma concentration M6G After 60 minutes,[1]; [4],6.28 ng/mL and 5.05 ng/mL and 3.95 ng/mL
same,Plasma concentration M6G After 90 minutes,[1]; [4],0 ng/mL and 0.806 ng/mL and 0.657 ng/mL
same,Plasma concentration M6G After 15 minutes,[1]; [5],44.6 ng/mL
same,Plasma concentration M6G After 90 minutes,[1]; [5],3.41 ng/mL
same,Plasma concentration M6G After 60 minutes,"[1]; morphine hydrochloride 0.1 mg/kg s.c., Average value (N = 3 excluded as outlier)",7.65 ng/mL
same,Plasma concentration M6G After 15 minutes,[1]; [6],47.7 ng/mL and 35.3 ng/mL and 50.7 ng/mL
same,Plasma concentration M6G After 60 minutes,[1]; [6],0 ng/mL and 15.3 ng/mL
same,Plasma concentration M6G After 90 minutes,[1]; [6],2.98 ng/mL and 4.4 ng/mL and 2.85 ng/mL
same,Plasma concentration M6G After 15 minutes,[1]; [7],1196 ng/mL
same,Plasma concentration M6G After 60 minutes,[1]; [7],646 ng/mL
same,Plasma concentration M6G After 90 minutes,[1]; [7],298 ng/mL
same,Plasma concentration M6G After 15 minutes,[1]; [8],1250 ng/mL and 1340 ng/mL and 998 ng/mL
same,Plasma concentration M6G After 60 minutes,[1]; [8],829 ng/mL and 580 ng/mL and 528 ng/mL
same,Plasma concentration M6G After 90 minutes,[1]; [8],320 ng/mL and 240 ng/mL and 335 ng/mL
CN1CC[C@]23c4c5ccc(O)c4O[C@H]2[C@@H](O)C=C[C@H]3[C@H]1C5 [morphine],dose at which the analgesic effect was maximum,mice,8 mg/kg
CC[C@H](C)[C@@H]1NC(=O)[C@H](Cc2ccc(O)cc2)NC(=O)[C@@H](N)CSSC[C@@H](C(=O)N2CCC[C@H]2C(=O)N[C@@H](CC(C)C)C(=O)NCC(N)=O)NC(=O)[C@H](CC(N)=O)NC(=O)[C@H](CCC(N)=O)NC1=O [oxytocin],"improvement effect of social impairment, persistence",[2],the drug efficacy disappears
